Results taken from patent publication US20200171056A1, “SULFONYLUREA COMPOUNDS IN THE TREATMENT OF DISEASE ASSOCIATED WITH UV-INDUCED DAMAGE” (CeMM - Forschungszentrum für Molekulare Medizin GmbH, priority 2017, published 2020).

Columns and labels:
Type in all cases: cell-based, human
[1] = system: XPA-deficient HAP1 cells (ΔXPA); assay: High-throughput drug screen for agents that alleviate UV sensitivity of NER-deficient cells; settings: drug at five times maximal plasma concentration for 24 hours, then UV; viability after 3 days
Source text: An in-house drug library of around 300 compounds representing all structurally distinct Food and Drug Administration (FDA) approved compounds was used to allow for potential drug repurposing. First, an NER-deficient cell line was generated by making a frameshift mutation in XPA, one of the central components of NER that functions in both TC-NER and GG-NER, utilizing CRISPR-Cas9 in the human near haploid cell line HAP1 (denoted ΔXPA) (FIG. 5A). […] Next, ΔXPA and wildtype cells were exposed to the drug library (with each drug used at five times maximal plasma concentration) for 24 hours, followed by UV exposure (at a dose selected to kill ΔXPA cells but not wildtype cells) (FIGS. 1A and 5D). The compounds were scored based on their efficiency to improve cellular survival of ΔXPA cells, compared to wildtype cells (FIG. 1B). […]
Fifty nL of compound per well was transferred into 384-well plates (Corning 3712) from DMSO stock plates using acoustic transfer (Labcyte Echo 520). […] Three days later cell viability was determined using Cell Titer-Glo (Promega). […] For data analysis, the percentage of control was calculated and the signal of the DMSO irradiated sample was used to set values to 0% while the DMSO non-irradiated sample was used to set the values to 100%. […]

ΔXPA cells = assay: Short-term survival after UV irradiation (CellTiter-Glo); settings: 0.5 mM acetohexamide for 6 hours, then UV; survival after 3 days (FIG. 1D)
Source text: A. Schematic representation of the experimental setup used to perform the high-throughput drug screen, where drugs were used at five-times maximal plasma concentration (CLOUD; CeMM library of unique drugs). B. Bubble plot displaying the drugs used plotted against cell viability. Light grey bubbles indicate wildtype (WT) cells, dark grey bubbles indicate XPA-deficient cells (ΔXPA). […] C. Chemical structure of acetohexamide. D. Dose-response curve of WT and ΔXPA cells treated with or without 0.5 mM acetohexamide for 6 hours, followed by UV irradiation. Survival was assessed after 3 days, using CellTiter-Glo. […] Error bars indicate SEM (n=3). E. Colony formation using the same conditions indicated in (D), where cells were kept in culture for 10 days following UV irradiation, following which they were fixed and stained.
A-C. Cell viability of ΔXPA cells treated with different concentrations of acetohexamide (aceto), gliclazide (GLC) and glimepiride (GLM) for 6 hours, followed by 10 J/M^2 of UV irradiation. D. Survival of WT and ΔXPA cells treated with or without 50 μM glibenclamide for 6 hours, followed by UV exposure. Survival was assessed after 3 days using CellTitre-Glo. E. Cell viability of ΔXPA cells treated with 10 μM of different derivatives of acetohexamide for 6 hours, followed by UV irradiation with 5 J/M^2.
For UV irradiation, cells were washed with PBS, trypsinized, counted and distributed in equal number then irradiated with different doses of UV as indicated. Finally, 1,000 cells were re-distributed into 96 well plates. After 72 hours, survival was measured using Cell Titer-Glo (Promega). Cells were irradiated with UVC using the UVP CX-2000 device (254 nm, Fisher Scientific).

CPDs in XPA^Δ/Δ cells = assay: Immunofluorescence for cyclobutane pyrimidine dimers; settings: 0.5 mM for 6 hours
Experimental: A. Dose-response curve of WT and ΔXPA cells treated with or without 0.5 mM acetohexamide for 6 hours, followed by illudin S treatment. Survival was assessed after 3 days using CellTiter-Glo. B. Colony formation of WT fibroblasts (BJ) and XPA-patient derived fibroblasts (XPA^Δ/Δ) treated with or without 0.5 mM acetohexamide for 6 hours, followed by UV irradiation (as indicated) and then kept in culture for 10 days. C. WT BJ and XPA^Δ/Δ fibroblastoid cells were treated with 0.5 mM acetohexamide for 6 hours, irradiated with 15 J/M^2 and then fixed and immunostained with an anti-cyclobutane pyrimidine dimer (CPD) antibody at the indicated times. Nuclear DNA was counterstained with DAPI. Scale bar, 10 μm. D. Scatter plot displaying the quantification of CPD intensities per nucleus of WT and XPA^Δ/Δ cells in the presence or absence of 0.5 mM acetohexamide, of more than 100 cells. Red lines within each column represent median intensities. A.u.=arbitrary unit.
For measurement of cyclobutane pyrimidine dimers (CPDs), cells were seeded onto coverslips (VWR) in 5 cm dishes. On the following day, cells were treated as indicated. Next, they were washed twice with PBS and fixed with 4% paraformaldehyde (PFA) for 10 minutes at room temperature (RT), then permeabilized with 0.5% Triton X-100 in PBS for 5 minntes at RT. […] Quantification was performed using CellProfiler.

WT HAP1 cells = assay: Survival after other DNA damaging agents (MMC, HU, MMS); settings: WT HAP1, 0.5 mM for 6 hours, 3 days
Experimental: A. WT and ΔXPA cells were either treated with DMSO or 0.5 mM acetohexamide for 6 hours. Cell cycle profiles were determined using propidium iodide (P1) staining followed by FACS analysis. B-D. Survival of WT HAP1 cells treated with either DMSO or 0.5 mM acetohexamide for 6 hours, followed by exposure to the indicated DNA damaging agents (MMC: mitomycin C; HU: hydroxyl urea; MMS: methyl methanesulfonate). Survival was assessed after 3 days using CellTitre-Glo. E. Cell viability of WT cells treated either with 0.5 mM acetohexamide or 30 μM N-acetylcysteine (NAC) for 6 hours, followed by 30 J/M^2 UV exposure.
Dose Responses and UV Treatment Dose-response curves for the DNA damage agents including mitomycin C (MMC), methyl methanesulfonate (MMS), hydroxyurea (HU), neocarzinostatin (NCS) and illudin S were performed in 96-well plates by seeding 1,000 cells/well in triplicates. The next day, compounds at different concentrations were added and 3 days later, cell viability was assessed using Cell Titer-Glo (Promega)

`CC(=O)c1ccc(S(=O)(=O)NC(=O)NC2CCCCC2)cc1` [acetohexamide] was tested, and the “correction of survival of ΔXPA cells compared to wildtype cells” value [1] was > 40%, the “UV sensitivity of ΔXPA cells, short-term dose response assay” value (ΔXPA cells) was “alleviated the UV sensitivity of ΔXPA cells almost to the level of wildtype cells” and the “initial amount of CPDs” value (CPDs in XPA^Δ/Δ cells; 15 J/M^2 (FIG. 2C-D)) was “did not affect the initial amount of CPDs”. For the same compound, the “clearance of CPDs” value (CPDs in XPA^Δ/Δ cells; XPA^Δ/Δ cells, 15 J/M^2, 24 hours post UV (FIG. 2C-D)) was “led to the clearance of CPDs in XPA^Δ/Δ cells”, the “cellular survival following exposure to HU” value (WT HAP1 cells; then hydroxyurea) was “did not increase cellular survival” and the “cellular survival following exposure to MMS” value (WT HAP1 cells; then methyl methanesulfonate) was “did not increase cellular survival”. For the same compound, the “cellular survival following exposure to MMC” value (WT HAP1 cells; then mitomycin C) was “did not increase cellular survival”.
